# Measured values taken from ChEMBL document CHEMBL6083204, “Synthesis of a celastrol derivative as a cancer stem cell inhibitor through regulation of the STAT3 pathway for treatment of ovarian cancer” (RSC Med Chem, 2024).
# The source made the active and inactive calls. No cut-off for these calls is given here.
# What was measured:
# [1] = target: Signal transducer and activator of transcription 3 (Homo sapiens) (UniProt P40763); test: Inhibition of STAT3 in human SK-OV-3 cells assessed as downregulation of survivin expression at 0.1 to 0.4 uM incubated for 24 hrs by Western blotting analysis; assay type: cell-based; conditions: dose 0.1-0.4 µM
# SK-OV-3 [2] = test: Inhibition of colony formation in human SK-OV-3 cells assessed as reduction in colony number incubated for 10 days by crystal violet staining based analysis; assay type: functional, cell-based; conditions: time 10.0 day
# SK-OV-3 [3] = test: Antiproliferative activity against human SK-OV-3 cells assessed as decrease in CD44 positive CD24 negative cells expression at 0.4 uM incubated for 24 hrs by FITC staining based flow cytometry (reference value: 85.6 %); assay type: functional; set-up: scale not given: the % may be the effect or the level left
# A2780 [4] = test: Induction of apoptosis in human A2780 cells assessed as increase in caspase-8 activity at 0.8 uM incubated for 24 hrs by flow cytometry (reference value: 1.2 %); assay type: functional
# [5] = Toxicity in BALB/c mouse xenografted with human SK-OV-3 cells assessed as change in body weight at 2 to 5 mg/kg,ip administrated for 21 consecutive days; assay type: organism-based; conditions: in vivo, dose 2-5 mg/kg
# [6] = target: Signal transducer and activator of transcription 3 (Homo sapiens) (UniProt P40763); test: Inhibition of STAT3 in human SK-OV-3 cells assessed as downregulation of STAT3 phosphorylation at Tyr705 residue in nuclei at 0.2 uM incubated for 24 hrs by Hoechst33342 staining based immunofluorescence assay; assay type: cell-based
# A2780 [7] = test: Induction of cell cycle arrest in human A2780 cells assessed as reduction of CDK4 expression at 0.4 uM incubated for 24 hrs by flow cytometry (reference value: 93.6 %); assay type: functional; set-up: scale not given: the % may be the effect or the level left
# A2780 [8] = test: Induction of cell cycle arrest in human A2780 cells assessed as accumulation of cells at G0/G1 phase at 0.8 uM incubated for 24 hrs by BrdU staining based flow cytometry (reference value: 42.4 %); assay type: functional
# A2780 [9] = test: Induction of apoptosis in human A2780 cells assessed as increase in caspase-3 activity at 0.2 uM incubated for 24 hrs by flow cytometry (reference value: 1.5 %); assay type: functional
# SK-OV-3 [10] = test: Induction of apoptosis in human SK-OV-3 cells assessed as late apoptotic cells at 0.4 uM incubated for 24 hrs by Annexin V-FITC/7-AAD staining based flow cytometry (reference value: 3.7 %); assay type: functional
# SK-OV-3 [11] = test: Induction of cell cycle arrest in human SK-OV-3 cells assessed as accumulation of cells at G2/M phase at 0.2 uM incubated for 24 hrs by BrdU staining based flow cytometry (reference value: 6.3 %); assay type: functional
# [12] = target: Tyrosine-protein kinase JAK2 (Homo sapiens) (UniProt O60674); test: Inhibition of JAK2 in human SK-OV-3 cells assessed as downregulation of JAK2 phosphorylation at 0.1 to 0.4 uM incubated for 24 hrs by Western blotting analysis; assay type: cell-based; conditions: dose 0.1-0.4 µM
# Mitochondrial membrane [13] = test: Induction of mitochondrial membrane potential loss in human SK-OV-3 cells at 0.4 uM incubated for 24 hrs by JC-1 staining based flow cytometry (reference value: 73.6 %)
# SK-OV-3 [14] = test: Induction of apoptosis in human SK-OV-3 cells assessed as viable cells at 0.2 uM incubated for 24 hrs by Annexin V-FITC/7-AAD staining based flow cytometry (reference value: 94.6 %); assay type: functional; conditions: read-out: Activity
# SK-OV-3 [15] = test: Antitumor activity against human SK-OV-3 cells xenografted in BALB/c mouse assessed as reduction in tumor weight at 5 mg/kg,ip administrated for 21 consecutive days; assay type: functional, organism-based
# A2780 [16] = test: Induction of cell cycle arrest in human A2780 cells assessed as accumulation of cells at S phase at 0.2 uM incubated for 24 hrs by BrdU staining based flow cytometry (reference value: 51.6 %); assay type: functional
# A2780 [17] = test: Induction of apoptosis in human A2780 cells assessed as increase in caspase-3 activity at 0.4 uM incubated for 24 hrs by flow cytometry (reference value: 1.5 %); assay type: functional
# SK-OV-3 [18] = test: Inhibition of cell migration in human SK-OV-3 cells assessed as downregulation of phosphorylated FAK expression at 0.1 to 0.4 uM incubated for 24 hrs by Western blotting analysis; assay type: functional, cell-based; conditions: dose 0.1-0.4 µM
# A2780 [19] = test: Inhibition of colony formation in human A2780 cells assessed as reduction in colony number incubated for 10 days by crystal violet staining based analysis; assay type: functional, cell-based; conditions: time 10.0 day
# A2780 [20] = test: Inhibition of human A2780 cells spheroid formation assessed as reduction in spheroid number at 0.1 to 0.4 uM incubated for 10 days by inverted microscopic analysis; assay type: functional, cell-based; conditions: dose 0.1-0.4 µM, time 10.0 day
# [21] = target: Signal transducer and activator of transcription 3 (Homo sapiens) (UniProt P40763); test: Inhibition of STAT3 in human A2780 cells assessed as downregulation of cytoplasmic STAT3 expression at 0.2 uM incubated for 24 hrs by Hoechst33342 staining based immunofluorescence assay; assay type: cell-based
# A2780 [22] = test: Antiproliferative activity against human A2780 cells assessed as decrease in CD44 positive CD24 negative cells expression at 0.2 uM incubated for 24 hrs by FITC staining based flow cytometry (reference value: 28.13 %); assay type: functional; set-up: scale not given: the % may be the effect or the level left
# A2780 [23] = test: Induction of apoptosis in human A2780 cells assessed as early apoptotic cells at 0.2 uM incubated for 24 hrs by Annexin V-FITC/7-AAD staining based flow cytometry (reference value: 1.9 %); assay type: functional
# A2780 [24] = test: Induction of cell cycle arrest in human A2780 cells assessed as accumulation of cells at G2/M phase at 0.4 uM incubated for 24 hrs by BrdU staining based flow cytometry (reference value: 6.2 %); assay type: functional
# SK-OV-3 [25] = test: Inhibition of cell migration in human SK-OV-3 cells assessed as downregulation of FAK expression at 0.1 to 0.4 uM incubated for 24 hrs by Western blotting analysis; assay type: functional, cell-based; conditions: dose 0.1-0.4 µM
# Mitochondrial membrane [26] = test: Induction of mitochondrial membrane potential loss in human A2780 cells at 0.2 uM incubated for 24 hrs by JC-1 staining based flow cytometry (reference value: 81 %)
# A2780 [27] = test: Inhibition of cell migration in human A2780 cells assessed as reduction in number of migrated cells at 0.1 to 0.4 uM incubated for 24 hrs by crystal violet staining based transwell assay; assay type: functional; conditions: dose 0.1-0.4 µM
# OVCAR-3 = test: Antiproliferative activity against human OVCAR-3 cells assessed as inhibition of cell growth incubated for 72 hrs by MTT assay; assay type: functional, cell-based; conditions: OVCAR-3, 72 h
# A2780 [28] = test: Induction of cell cycle arrest in human A2780 cells assessed as reduction of Cyclin D1 expression at 0.8 uM incubated for 24 hrs by flow cytometry (reference value: 92.5 %); assay type: functional; set-up: scale not given: the % may be the effect or the level left
# [29] = target: Signal transducer and activator of transcription 3 (Homo sapiens) (UniProt P40763); test: Inhibition of STAT3 in human A2780 cells assessed as downregulation of STAT3 phosphorylation at Ser727 residue in nuclei at 0.2 uM incubated for 24 hrs by Hoechst33342 staining based immunofluorescence assay; assay type: cell-based
# SK-OV-3 [30] = test: Antitumor activity against human SK-OV-3 cells xenografted in BALB/c mouse assessed as reduction in tumor volume at 5 mg/kg,ip administrated for 21 consecutive days relative to control; assay type: functional; set-up: scale not given: the % may be the effect or the level left
# SK-OV-3 [31] = test: Induction of cell cycle arrest in human SK-OV-3 cells assessed as accumulation of cells at G0/G1 phase at 0.2 uM incubated for 24 hrs by BrdU staining based flow cytometry (reference value: 59.8 %); assay type: functional
# Signal transducer and activator of transcription 3 (Homo sapiens), sequence (P40763 whole entry): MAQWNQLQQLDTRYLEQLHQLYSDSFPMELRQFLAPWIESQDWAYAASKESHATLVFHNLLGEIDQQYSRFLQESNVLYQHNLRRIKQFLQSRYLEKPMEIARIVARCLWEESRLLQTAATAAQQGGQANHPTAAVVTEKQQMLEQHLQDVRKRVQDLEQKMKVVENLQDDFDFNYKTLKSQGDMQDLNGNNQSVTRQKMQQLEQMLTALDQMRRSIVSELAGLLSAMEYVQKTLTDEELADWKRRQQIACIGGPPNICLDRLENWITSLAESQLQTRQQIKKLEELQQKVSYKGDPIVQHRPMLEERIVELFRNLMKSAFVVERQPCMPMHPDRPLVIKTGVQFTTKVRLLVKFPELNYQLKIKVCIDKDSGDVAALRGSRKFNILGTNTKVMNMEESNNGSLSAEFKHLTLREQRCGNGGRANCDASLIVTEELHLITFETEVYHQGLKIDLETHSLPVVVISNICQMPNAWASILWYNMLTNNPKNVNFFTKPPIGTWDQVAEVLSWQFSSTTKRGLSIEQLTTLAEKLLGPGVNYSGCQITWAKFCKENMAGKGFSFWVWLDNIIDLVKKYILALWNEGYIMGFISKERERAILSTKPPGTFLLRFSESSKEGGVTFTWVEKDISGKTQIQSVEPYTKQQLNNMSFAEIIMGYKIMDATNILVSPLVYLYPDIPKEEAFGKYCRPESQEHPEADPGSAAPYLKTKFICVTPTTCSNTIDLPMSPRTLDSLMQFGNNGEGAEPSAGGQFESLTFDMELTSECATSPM
# Tyrosine-protein kinase JAK2 (Homo sapiens), sequence (O60674 whole entry): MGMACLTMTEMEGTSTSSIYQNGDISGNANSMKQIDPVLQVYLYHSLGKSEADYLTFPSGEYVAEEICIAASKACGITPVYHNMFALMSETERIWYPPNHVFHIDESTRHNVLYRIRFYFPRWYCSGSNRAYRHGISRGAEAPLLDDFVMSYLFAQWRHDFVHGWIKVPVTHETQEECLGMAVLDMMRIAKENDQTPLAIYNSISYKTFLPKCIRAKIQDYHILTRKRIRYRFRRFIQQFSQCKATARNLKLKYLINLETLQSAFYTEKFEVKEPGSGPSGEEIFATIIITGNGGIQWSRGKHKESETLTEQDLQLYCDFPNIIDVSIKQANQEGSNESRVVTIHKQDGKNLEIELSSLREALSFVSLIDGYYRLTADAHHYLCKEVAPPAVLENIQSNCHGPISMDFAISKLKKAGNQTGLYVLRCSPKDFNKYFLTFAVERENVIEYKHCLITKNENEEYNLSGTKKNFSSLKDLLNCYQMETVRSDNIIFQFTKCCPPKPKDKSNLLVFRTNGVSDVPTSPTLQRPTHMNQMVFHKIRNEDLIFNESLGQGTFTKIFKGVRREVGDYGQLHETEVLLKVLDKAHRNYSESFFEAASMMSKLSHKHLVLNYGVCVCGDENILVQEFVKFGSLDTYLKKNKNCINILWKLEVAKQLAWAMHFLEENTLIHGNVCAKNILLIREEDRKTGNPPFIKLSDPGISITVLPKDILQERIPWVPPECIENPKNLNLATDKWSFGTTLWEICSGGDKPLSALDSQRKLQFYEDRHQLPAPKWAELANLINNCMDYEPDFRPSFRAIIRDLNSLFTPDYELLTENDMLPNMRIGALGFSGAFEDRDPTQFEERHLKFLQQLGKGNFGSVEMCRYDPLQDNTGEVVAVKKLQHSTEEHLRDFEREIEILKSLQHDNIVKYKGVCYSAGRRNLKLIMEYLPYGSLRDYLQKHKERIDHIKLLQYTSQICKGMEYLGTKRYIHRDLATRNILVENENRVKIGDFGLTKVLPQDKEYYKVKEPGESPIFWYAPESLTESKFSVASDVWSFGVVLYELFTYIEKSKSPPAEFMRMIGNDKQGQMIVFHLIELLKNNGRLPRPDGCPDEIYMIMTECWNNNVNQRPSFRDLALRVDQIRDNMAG
structure (smiles),measurement,setting,value
CC1=C(O)C(=O)C=C2C1=CC=C1[C@@]2(C)CC[C@@]2(C)[C@@H]3C[C@](C)(C(=O)N4CCNCC4)CC[C@]3(C)CC[C@]12C,inhibition,[1],Active
same,inhibition,SK-OV-3 [2],Dose-dependent-effect
same,Activity,SK-OV-3 [3],51.67%
same,Activity,A2780 [4],12%
same,Activity,[5],Non-toxic
same,inhibition,[6],Active
same,Activity,A2780 [7],17.2%
same,Activity,A2780 [8],70.5%
same,Activity,A2780 [9],3.7%
same,Activity,SK-OV-3 [10],11.5%
same,Activity,SK-OV-3 [11],6.7%
same,inhibition,[12],Active
same,Activity,Mitochondrial membrane [13],17.2%
same,viability at 0.2 µM,SK-OV-3 [14],74.2%
same,Activity,SK-OV-3 [15],Active; Showed Moderate Reduction Activity
same,Activity,A2780 [16],41.7%
same,Activity,A2780 [17],24.1%
same,inhibition,SK-OV-3 [18],Active
same,inhibition,A2780 [19],Dose-dependent-effect
same,inhibition,A2780 [20],Active
same,inhibition,[21],Active; Showed Mild Inhibition Activity
same,Activity,A2780 [22],17.97%
same,Activity,A2780 [23],4.4%
same,Activity,A2780 [24],10.1%
same,inhibition,SK-OV-3 [25],Active
same,Activity,Mitochondrial membrane [26],53.2%
same,inhibition,A2780 [27],Active
same,IC50,OVCAR-3,250 nM
same,Activity,A2780 [28],15%
same,inhibition,[29],Active
same,Activity,SK-OV-3 [30],74.58%
same,Activity,SK-OV-3 [31],59.2%
